Measurements reported in ChEMBL document CHEMBL5614432, “NRF2 inhibitors: Recent progress, future design and therapeutic potential” (Eur J Med Chem, 2024).

Assays:
THP-1 = experiment: Cytotoxicity against human THP-1 cells incubated for 48 hrs by CCK8 assay; type: functional, cell-based; conditions: THP-1, 48 h
[1] = biological target: T1, Nuclear factor erythroid 2-related factor 2 (Homo sapiens, UniProt Q16236); experiment: Inhibition of NRF2 in human KYSE-70 cells; type: cell-based
T1 sequence (Q16236 whole entry): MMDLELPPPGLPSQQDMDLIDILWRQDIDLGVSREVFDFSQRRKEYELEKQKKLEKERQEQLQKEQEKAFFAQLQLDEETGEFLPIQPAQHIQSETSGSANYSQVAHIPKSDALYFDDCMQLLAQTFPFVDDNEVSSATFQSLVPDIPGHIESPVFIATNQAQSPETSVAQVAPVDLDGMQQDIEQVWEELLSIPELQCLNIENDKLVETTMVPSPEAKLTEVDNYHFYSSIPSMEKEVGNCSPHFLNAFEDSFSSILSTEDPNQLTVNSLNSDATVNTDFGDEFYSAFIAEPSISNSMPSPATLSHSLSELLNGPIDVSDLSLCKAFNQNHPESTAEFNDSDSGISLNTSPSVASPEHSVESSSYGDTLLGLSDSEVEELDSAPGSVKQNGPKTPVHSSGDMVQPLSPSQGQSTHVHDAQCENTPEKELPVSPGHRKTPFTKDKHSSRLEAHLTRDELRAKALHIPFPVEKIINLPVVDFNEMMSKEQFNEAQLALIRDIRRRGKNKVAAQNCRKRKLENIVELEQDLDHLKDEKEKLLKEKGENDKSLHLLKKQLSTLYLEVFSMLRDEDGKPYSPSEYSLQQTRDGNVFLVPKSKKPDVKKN

[2] = biological target: T1, Nuclear factor erythroid 2-related factor 2; experiment: Inhibition of NRF2 in human A549 cells; type: cell-based
cells = conditions: Homo sapiens, Bel-7402, 48 h
Description: Cytotoxicity against human BEL-7402/ADM cells incubated for 48 hrs by MTT assay

Caov-4 = experiment: Inhibition of cell growth of human Caov-4 cells incubated for 24 to 96 hrs with re-current replacement of media containing compound for every 48 hrs by CCK8 assay; type: functional, cell-based
SK-OV-3 = experiment: Inhibition of cell growth of human SK-OV-3 cells incubated for 24 to 96 hrs with re-current replacement of media containing compound for every 48 hrs by CCK8 assay; type: functional, cell-based
A2780 = experiment: Inhibition of cell growth of human A2780 cells incubated for 24 to 96 hrs with re-current replacement of media containing compound for every 48 hrs by CCK8 assay; type: functional, cell-based
[3] = Cytotoxicity against human Leukemic stem cells incubated for 72 hrs by MTT assay; type: functional, cell-based; conditions: Leukemic stem cell
NRF2-MAFG = NRF2-MAFG (Homo sapiens, UniProt O15525+Q16236); experiment: Inhibition of NRF2/MAFG (unknown origin) heterodimerization using fluorescein-labeled ARE DNA duplex as substrate preincubated for 1 hr followed by substrate addition measured after 1 hr by FP assay; type: protein-complex assay
Sequence of NRF2-MAFG (O15525 whole entry, one chain of several): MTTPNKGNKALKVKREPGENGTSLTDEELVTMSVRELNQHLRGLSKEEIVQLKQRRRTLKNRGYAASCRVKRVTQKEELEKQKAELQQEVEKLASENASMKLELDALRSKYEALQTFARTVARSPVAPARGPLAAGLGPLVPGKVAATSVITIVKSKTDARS

T98G = experiment: Inhibition of cell viability in human T98G cells incubated for 24 hrs by MTT assay; type: functional, cell-based
U-87 MG = experiment: Inhibition of cell viability in human U-87 MG cells incubated for 24 hrs by MTT assay; type: functional, cell-based, U-87MG ATCC
[4] = Cytotoxicity against human MCF7-DOX cells incubated for 24 hrs by MTT assay; type: functional, cell-based

CC(C)(C)c1ccc(Cn2nc(-c3ccc(Cl)cc3)cc2C(=O)NO)cc1
IC50 (THP-1): 5.33 µM

O=C(CC1NCCCC1O)Cn1cnc2cc(Br)c(Cl)cc2c1=O (stereo not drawn) [HALOFUGINONE]
IC50 [1]: 0.0223 µM
IC50 [2]: 0.0372 µM

O=c1cc(-c2ccc(O)cc2)oc2cc(O)cc(O)c12 [APIGENIN]
IC50 (cells): ~50 µM

N#CC1(c2ccc(NC(=O)c3cccnc3NCc3ccncc3)cc2)CCCC1 [RIVOCERANIB]
IC50 (Caov-4): ~20 µM
IC50 (SK-OV-3): ~20 µM
IC50 (A2780): ~20 µM

CC(C)[C@]12O[C@H]1[C@@H]1O[C@]13[C@]1(O[C@H]1C[C@H]1C4=C(CC[C@@]13C)C(=O)OC4)[C@@H]2O [TRIPTOLIDE]
IC50 [3]: 0.0205 µM

Cc1ccccc1C(=O)N1CCc2cc(-c3nc(NC(=O)Cc4ccc5c(c4)OCO5)sc3C)ccc21
IC50 (NRF2-MAFG): 1.9 µM

CC(C)c1cccc(=O)c(O)c1 [HINOKITIOL]
IC50 (T98G): 152 µM
IC50 (U-87 MG): 316 µM

COc1c(O)cc(O)c2c(=O)cc(-c3ccccc3)oc12 [WOGONIN]
IC50 [4]: ~150 µM

O=c1cc(-c2ccccc2)oc2cc(O)cc(O)c12 [CHRYSIN]
IC50 (cells): ~30 µM
